# Results taken from PMC5352362, “Molecular and functional evaluation of a novel HIF inhibitor, benzopyranyl 1,2,3-triazole compound” (Oncotarget, 2016).
# Columns and labels:
# [1] = system: angiogenesis (hemoglobin content of Matrigel plug); assay: Matrigel plug assay in C57BL/6J mice; type: in vivo, mouse; details: Compound 12 100 nM, gefitinib 5 μM in Matrigel, 10 days
# Description: HIF-1α is synthesized by growth factor signaling pathways, such as those of EGFR [30] [31]. Inhibition of HIF-1α in its pathways of synthesis, as well as in its pathway of degradation, would seem to make for a more efficient anti-cancer/anti-angiogenesis treatment. To confirm this, we performed a tumor allogaft experiment using Lewis lung carcinoma (LLC) cells. 1 × 10^6 LLC cells were inoculated into the mouse flank subcutaneously (s.c.), and treatment with Compound 12 (5 mg/kg) and/or gefitinib (an EGFR inhibitor, 50 mg/kg), via intraperitoneal (i.p.) administration, was performed every other day for 20 days. […] To confirm the effect of Compound 12 on angiogenesis, we analyzed angiogenesis using the Matrigel plug assay. […]
# Figure 6 Compound 12 suppressed allogaft tumor growth and enhanced the effects of a chemotherapeutic agent (A, B) Lewis lung carcinoma cells were inoculated into flanks of C57BL/6J mice (Day 0). […] Tumor size (A) and tumor weight (B) were measured three times a week and on the final day, respectively. […] The content of hemoglobin was quantified and graphed. (D) Tumor tissue sections (10 μm) indicated were stained with H&E and immunostained with anti-CD31 antibody to detect microvessel density; CD31+ cell percentages were then calculated and graphed. […] (F) Images and quantitative comparisons (graph) for Ki67+ proliferating cells in tumor center regions are shown. […]
# [2] = system: chick chorioallantoic membrane angiogenesis; assay: Chick embryo chorioallantoic membrane (CAM) assay; type: in vivo; details: applied to ED 4.5 CAM for two days; Compound 12 0.1 μg and 1 μg
# Description: Figure 5 Compound 12 suppressed HIF-1α target gene expression, and confirmation of in vitro results via determination of effects on angiogenesis in vivo (A) A549 cells were treated with Compound 12 (at concentrations of 0 nM, 1 nM, 10 nM, and 100 nM) for 16 h. The mRNA levels of HIF-1α target genes were determined by semiquantitative RT-PCR. β-actin was used as an internal control. D. DMSO vehicle control. N, normoxia; H, hypoxia. (B) A549 cells were treated with serum-reduced culture media containing Compound 12 (at concentrations of 0 nM, 10 nM, and 100 nM) for 16 h. Media supernatant was collected, and secreted VEGF was determined by ELISA after removal of cellular debris. N, normoxia; H, hypoxia. **P < 0.01 versus hypoxia (H) DMSO (D)-treated control. (C) HUVECs were treated with Compound 12, at the indicated concentrations, in the presence of VEGF (20 ng/mL) for 24 h in 1% serum-containing media. […] Cells that migrated through the membrane (8 μm pore size) were stained with hematoxylin and eosin, pictured as shown in upper panel, and counted (graph). *P < 0.05, **P < 0.01 versus VEGF-treated control. […] (F) Compound 12 (0.1 μg and 1 μg dosages) and retinoic acid (RA, positive control) were applied to the ED 4.5 CAM for two days, neovessel formation from the large vessels was observed, and percentages of positive angiogenic eggs (from total eggs tested) were calculated. […]
compound,measurement,setting,value
"COc1ccc(-c2cn(CC3(C)C=Cc4cc([N+](=O)[O-])ccc4O3)nn2)cc1 (centres unmarked) [Compound 12, 4-(4-methoxyphenyl)-1-((2-methyl-6-nitro-2H-chromen-2-yl)methyl)-1H-1,2,3-triazole]","anti-angiogenic activity, Matrigel plug (hemoglobin content)",[1],anti-angiogenic activity was increased
same,CAM angiogenesis,[2],"significantly suppressed CAM angiogenesis, in a dose-dependent manner"
